Test results published in patent publication US20020022617A1, “Methods for increasing nitric oxide synthase activity” (American Home Products Corporation, priority 2000, published 2002).

System: aortic rings of ovariectomized rats
Experiment: Basal NO release in isolated aortic rings of treated ovariectomized rats (phenylephrine curves before and after L-NAME)
Type: in vivo, Sprage-Dawley rats
Conditions: for response of vessels to L-NAME after washout: 1 mg/kg/day by gastric gavage, 200 μM L-NAME, vehicle treated group had a significantly smaller response; for response of the vessels compared among intact, estradiol and TSE-424 treated groups / difference from vehicle treated group (basal NO release, separation of curves before and after L-NAME): 1 mg/kg/day; for response of the vessels compared among intact, estradiol and TSE-424 treated groups: all phenylephrine concentrations (except 0.01 μM phenylephrine TSE-424 treated group); for difference from vehicle treated group (basal NO release, separation of curves before and after L-NAME): at the 10 and 100 μM phenylephrine concentrations, p<0.05
Experimental: Sprage-Dawley rats (240-260 grams) were divided into 4 groups: (1) Normal non-ovariectomized (intact); (2) Ovariectomized (ovex) vehicle treated; (3) Ovariectomized 17-β estradiol treated (1 mg/kg/day); and (4) Ovariectomized TSE-424 treated (1 mg/kg/day). All animals were ovariectomized approximately 3 weeks prior to treatment. Each received 1 mg/kg/day of either 17-β estradiol sulfate or TSE-424 suspended in distilled, deionized water with 1% tween-80 by gastric gavage. Vehicle treated animals received an appropriate volume of the vehicle used in the drug treated groups.
Animals were euthanized by CO2 inhalation and exsanguination. Their thoracic aortas were rapidly removed and placed in 37° C. physiological solution with the following composition (mM): NaCl (54.7), KCl (5.0), NaHCO3 (25.0), MgCl2.2H2O (2.5), D-glucose (11.8) and CaCl2 (0.2) gassed with […] for a final pH of 7.4. The advantitia was removed from the outer surface and the vessel was cut into 2-3 mm wide rings. Rings were suspended in at 10 mL tissue bath with one end attached to the bottom of the bath and the other to a force transducer. A resting tension of 1 gram was placed on the rings.
After equilibration, the rings were exposed to increasing concentrations of phenylephrine (10^−8 to 10^−4 M) and the tension recorded. Baths were then rinsed 3 times with fresh buffer. After washout, 200 μM N′-nitro-L-arginine methyl ester hydrochloride (L-NAME) was added to the tissue bath and equilibrated for 30 minutes. The phenylephrine concentration response curve was then repeated.
Contraction amplitudes at each concentration of phenylephrine were normalized to the maximum phenylephrine-induced contraction before the addition of L-NAME and graphed. The amount of basal NO released was proportional to the degree of separation between the 2 curves before and after L-NAME. Statistical differences were at the p<0.05 level of significance using a repeated measures “Test of Effect Slices (SAS)” analysis of variance.

Structure (SMILES)	response of vessels to L-NAME after washout	response of the vessels compared among intact, estradiol and TSE-424 treated groups	difference from vehicle treated group (basal NO release, separation of curves before and after L-NAME)
Cc1c(-c2ccc(O)cc2)n(Cc2ccc(OCCN3CCCCCC3)cc2)c2ccc(O)cc12 [TSE-424, 1-[4-(2-Azepan-1yl-ethoxy)-benzyl]-2-(4-hydroxy-phenyl)-3-methyl-1H-indol-5-ol]	substantial contraction	indistinguishable	significantly different
C[C@]12CC[C@@H]3c4ccc(O)cc4CC[C@H]3[C@@H]1CC[C@@H]2O [estradiol, 17-β estradiol]	substantial contraction	indistinguishable	significantly different
